In US5102885A, “Imidazoquinoxaline compounds and their use” (Novo Nordisk A/S, priority 1989, dated 1992):

The compounds below were run on benzodiazepine receptors (assay: In vivo displacement of 3H-flunitrazepam specific binding to brain benzodiazepine receptors in mice). Conditions: test substance i.p. 15 min before 3H-FNM i.v. (4 μCi), sacrificed 20 min after 3H-FNM, forebrain.
Set-up: species or system mice (female, NMR)
Source text: The pharmaceutical properties of the compounds of the invention can be illustrated by determining their capability for displacing radioactive labelled flunitrazepam from benzodiazepine receptors.
The displacement activity of the compounds of the invention may be found by determining the ED50 value. The ED50 value represents the dose (mg/kg) of a test substance which causes the specific binding of flunitrazepam to benzodiazepine receptors in a living brain to be reduced to 50% of the control value.
Such an in vivo test is carried out as follows:
Twenty minutes after a dose of ^3 H-flunitrazepam (^3 H-FNM) (200 μCi/kg, i.v.) the amount of specific ^3 H-FNM binding to brain benzodiazepine receptors has reached its maximal value.
Suspensions of test substances (2 mg/ml) are prepared in 5% Duphasol-X (TM Duphar, castor oil-ethylene oxide derivative for emulsifying and solubilizing oil and other water-insoluble substances) by sonification for 10 min using a Branson B15 microtip ultrasonifier (setting 7). Groups of three mice (female, NMR, 18-22 grams) are injected with the test substance at 100 mg/kg intraperitoneally. Fifteen minutes after test substance administration the mice are challenged with 4 μCi intravenously of ^3 H-FNM (70-90 Ci/mole) in 200 μl physiological saline. Twenty minutes after ^3 H-FNM administration mice are sacrificed by decapitation, the forebrains rapidly excised (within 30 sec) and homogenized in 12 ml of icecold 25 mM KH2 PO4, pH 7.1, using an Ultra-Turrax homogenizer fitted with an N 10 shaft. Two aliquots of 1 ml are immediately filtered through Whatman GF/C glassfibre filters and washed with 2×5 ml of the above mentioned buffer. The amounts of radioactivity on the filters are determined by conventional scintillation counting. One group of untreated mice serves as control. One to three mice are injected with 25 μg/kg clonazepam i.p. 30 minutes before ^3 H-FNM to determine the amount of non-specific ^3 H-FNM binding, which should be between 8-15% of total binding. […]
The ED50 value is determined from dose response curves.

Point of comparison: `CC(=O)CC(=O)c1ncn2c1c(=O)n(C(C)C)c1ccccc12` [Compound 4, 4,5-dihydro-5-isopropyl-4-oxo-3-(1,3-dioxobutyl)-imidazo-[1,5-a]quinoxaline], “ED50 (dose which inhibits 50% of specific 3H-flunitrazepam binding to benzodiazepine receptors in living brain)” value 1.4 mg/kg. Against it:
- CC(C)n1c(=O)c2c(C(=O)CC(=O)C3CC3)ncn2c2ccccc21 [Compound 2, 3-(3-cyclopropyl-1,3-dioxopropyl)-4,5-dihydro-5-isopropyl-4-oxo-imidazo[1,5-a]quinoxaline] — within 1.5-fold, 1.5 mg/kg
- CC(C)(C)n1c(=O)c2c(C(=O)CC(=O)C3CC3)ncn2c2ccccc21 [Compound 6, 5-tert-butyl-3-(3-cyclopropyl-1,3-dioxopropyl)-4,5-dihydro-4-oxo-imidazo[1,5-a]quinoxaline] — 1.8-fold higher, 2.5 mg/kg
